Data as given in article PMC4742234, “Screening of Drug Metabolizing Enzymes for the Ginsenoside Compound K In Vitro: An Efficient Anti-Cancer Substance Originating from Panax Ginseng” (PLoS ONE, 2016).
“And” between values parts separate entries of the source, which are not always exact repeats. Equal entries are not always repeated. “Also recorded” adds a separate entry of the source.

Legend:
[1] = test system: human liver microsomes (HLMs); assay: Kinetic analysis of CK metabolism in human liver microsomes; format: in vitro ADME; settings: HLMs 0.5 mg/mL, CK 10–100 μM, 37°C, 30 min, NADPH
Description: (§1) The method was conducted according to our previous study with some modifications. The CYP isoform-specific probe reactions used were phenacetin O-deethylation (for CYP1A2), coumarin 7-hydroxylation (for CYP2A6), tolbutamide 4-hydroxylation (for CYP2C9), metoprolol α-hydroxylation (for CYP2D6), chlorzoxazone 6-hydroxylation (for CYP2E1),S-Mephenytoin 4-hydroxylation (for CYP2C19), and midazolam 1-hydroxylation (for CYP3A4). The kinetic study of CK was conducted with HLMs. A 0.2 mL incubation mixture that consisted of CK (as a substrate), the HLMs (0.5 mg/mL) or CYP isoforms (10 pmol), and 0.1 M sodium phosphate buffer (pH 7.4) was pre-warmed for 5 min at 37°C. The reaction was initiated by the addition of 1 mg/mL triphosphopyridine nucleotide (NADPH). All the reagents were dissolved in methanol, and the final solvent concentration in all incubations (including the controls) was 1%. The final incubations were performed in a shaking water bath (37°C) for 30 min. The reactions were stopped by adding 0.2 mL ice-cold acetonitrile, which contains irbesartan (114.9 ng/mL) as the internal standard. The samples were vortexed for 5 min. After centrifugation (12000×g for 10 min), the supernatants were transferred, and aliquots of 20 μL were injected into the HPLC-MS/MS system for analysis. […]

[2] = as above; format: in vitro ADME; settings: human, human liver microsomes, pH 7.4, HLMs 0.5 mg/mL, CK 10–100 μM, 37°C, NADPH
Description: as §1

[3] = test system: CYP1A2, CYP2A6, CYP2D6, CYP2E1, CYP2C19; assay: Effect of the other specific inhibitors on CK metabolism in HLMs; format: in vitro ADME, human; settings: CK 50 μM, furafylline, tranylcypromine, quinidine, ticlopidine 1 μM, chlormethiazole 5 μM
Description: (§2) The method was conducted according to our previous study with some modifications. The CYP isoform-specific probe reactions used were phenacetin O-deethylation (for CYP1A2), coumarin 7-hydroxylation (for CYP2A6), tolbutamide 4-hydroxylation (for CYP2C9), metoprolol α-hydroxylation (for CYP2D6), chlorzoxazone 6-hydroxylation (for CYP2E1),S-Mephenytoin 4-hydroxylation (for CYP2C19), and midazolam 1-hydroxylation (for CYP3A4). The kinetic study of CK was conducted with HLMs. A 0.2 mL incubation mixture that consisted of CK (as a substrate), the HLMs (0.5 mg/mL) or CYP isoforms (10 pmol), and 0.1 M sodium phosphate buffer (pH 7.4) was pre-warmed for 5 min at 37°C. The reaction was initiated by the addition of 1 mg/mL triphosphopyridine nucleotide (NADPH). […]
(§3) To screen the specific CYP isoform responsible for the CK metabolism, we determined the inhibitory effect of specific inhibitors on the metabolism of CK in the HLMs as described in detail previously. […] The inhibitory effects of the above specific inhibitors on the metabolic clearance rate of CK were evaluated separately to screen the CYP isoforms responsible for the CK metabolism. The relative activity of the CYP isoforms was calculated by dividing the peak area of CK when incubated with the inhibitor by that of CK from the negative controls. […]

CYP2C19 = target: T1, CYP2C19 (Homo sapiens, UniProt P33261); assay: Inhibition of CYP2C19 (S-Mephenytoin 4-hydroxylation) by CK in HLMs; format: in vitro ADME
T1 construct: tissue Cypex Ltd. (U.K.); host or cells: pooled human liver microsomes
T1 sequence (P33261 whole entry): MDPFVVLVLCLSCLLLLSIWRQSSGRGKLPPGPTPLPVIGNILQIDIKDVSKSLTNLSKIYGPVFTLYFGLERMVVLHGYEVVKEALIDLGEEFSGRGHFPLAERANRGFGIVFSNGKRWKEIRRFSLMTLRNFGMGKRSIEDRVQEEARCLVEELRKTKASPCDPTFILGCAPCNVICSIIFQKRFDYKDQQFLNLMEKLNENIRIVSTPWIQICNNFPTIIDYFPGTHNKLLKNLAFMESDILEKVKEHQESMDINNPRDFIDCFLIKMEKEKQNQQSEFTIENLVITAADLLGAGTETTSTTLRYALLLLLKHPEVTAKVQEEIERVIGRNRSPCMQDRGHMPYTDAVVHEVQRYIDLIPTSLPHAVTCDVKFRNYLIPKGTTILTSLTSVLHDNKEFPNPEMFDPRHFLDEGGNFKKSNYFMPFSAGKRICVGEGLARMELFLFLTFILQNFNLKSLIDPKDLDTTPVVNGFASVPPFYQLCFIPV
Description: The method was conducted according to our previous study with some modifications. The CYP isoform-specific probe reactions used were phenacetin O-deethylation (for CYP1A2), coumarin 7-hydroxylation (for CYP2A6), tolbutamide 4-hydroxylation (for CYP2C9), metoprolol α-hydroxylation (for CYP2D6), chlorzoxazone 6-hydroxylation (for CYP2E1),S-Mephenytoin 4-hydroxylation (for CYP2C19), and midazolam 1-hydroxylation (for CYP3A4). The kinetic study of CK was conducted with HLMs. A 0.2 mL incubation mixture that consisted of CK (as a substrate), the HLMs (0.5 mg/mL) or CYP isoforms (10 pmol), and 0.1 M sodium phosphate buffer (pH 7.4) was pre-warmed for 5 min at 37°C. The reaction was initiated by the addition of 1 mg/mL triphosphopyridine nucleotide (NADPH). All the reagents were dissolved in methanol, and the final solvent concentration in all incubations (including the controls) was 1%. The final incubations were performed in a shaking water bath (37°C) for 30 min. The reactions were stopped by adding 0.2 mL ice-cold acetonitrile, which contains irbesartan (114.9 ng/mL) as the internal standard. The samples were vortexed for 5 min. After centrifugation (12000×g for 10 min), the supernatants were transferred, and aliquots of 20 μL were injected into the HPLC-MS/MS system for analysis.
CK (10–100 μM) and a single CYP isoform-specific substrate (with a concentration similar to its corresponding Kmvalue) were used to determine the inhibitory effect of CK on specific CYP isoforms as described in detail previously. Substrates including phenacetin, coumarin, tolbutamide, metoprolol, chlorzoxazone, S-Mephenytoin, and midazolam were used at concentrations of 10, 5, 100, 7.5, 40, 100, and 5 μM, respectively. All incubation conditions were the same as mentioned above. The inhibitory effects on the CYP isoforms were investigated individually by incubating the HLMs in the absence or presence of CK. […]

CYP2C9 = CYP2C9 (Homo sapiens, UniProt P11712); assay: Effect of specific inhibitor sulfaphenazole on CK metabolism in HLMs; format: in vitro ADME; parameters: tissue Cypex Ltd. (U.K.); host or cells: pooled human liver microsomes; settings: CK 50 μM, in the presence of sulfaphenazole 1 μM
CYP2C9, sequence (P11712 whole entry): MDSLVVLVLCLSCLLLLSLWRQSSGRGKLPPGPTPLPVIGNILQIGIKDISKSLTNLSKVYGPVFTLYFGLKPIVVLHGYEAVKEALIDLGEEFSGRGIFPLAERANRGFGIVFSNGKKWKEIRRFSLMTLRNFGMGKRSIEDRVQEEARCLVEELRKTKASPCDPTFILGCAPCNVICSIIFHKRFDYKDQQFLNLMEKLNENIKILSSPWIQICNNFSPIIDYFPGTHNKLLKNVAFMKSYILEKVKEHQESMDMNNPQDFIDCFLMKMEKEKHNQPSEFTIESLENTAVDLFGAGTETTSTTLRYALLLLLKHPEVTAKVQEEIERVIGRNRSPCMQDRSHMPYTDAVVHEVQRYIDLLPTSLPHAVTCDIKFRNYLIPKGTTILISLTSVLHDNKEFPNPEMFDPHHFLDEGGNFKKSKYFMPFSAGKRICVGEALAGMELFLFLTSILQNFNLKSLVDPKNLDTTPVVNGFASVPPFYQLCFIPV
Description: as §2, §3

## CC(C)=CCC[C@](C)(OC1O[C@H](CO)[C@@H](O)[C@H](O)[C@H]1O)[C@H]1CC[C@]2(C)[C@@H]1[C@H](O)C[C@@H]1[C@@]3(C)CC[C@H](O)C(C)(C)[C@@H]3CC[C@]12C (stereo partly drawn) [CK, 20-O-β-(D-glucopyranosyl)-20(S)-protopanaxadiol]
[1]
  Vmax of CK metabolism: 0.28±0.04 nmol/mg protein/min and 0.2840 nmol/mg protein/min
[2]
  Km at 30 min: 84.2 ± 21.9 µM
[3]
  effect of other specific inhibitors / CYP isoforms on CK metabolism: minimal or no effect; also recorded: no obvious inhibitory effects; also recorded: no significant inhibitory effects
CYP2C19; HLMs, CK 10–100 μM
  inhibitory effect on the activity of CYP2C19: minimal; also recorded: negligible
CYP2C19; HLMs, S-Mephenytoin 100 μM, CK 10–100 μM
  IC50: > 100 µM
CYP2C19; classified by IC50 according to Kong et al
  inhibitor potency class for CYP2C19: weak (weak, if IC50≥100 μg/mL or ≥50 μM)
CYP2C9
  metabolic clearance rate (MCR) of CK, of that of the control: 73.5±20.9% and 73.5%
